Assay results: the NIST ThermoML archive (doi:10.1021/je400486p)

Test: xn = mol fraction of the nth substance listed
Details: 101.3 kPa, Liquid; for viscosity: Concentric cylinders viscometry; for mass density: Vibrating tube method

COCCOCCOCCOCCOC [2,5,8,11,14-pentaoxapentadecane] + CCC(C)O
Details | mass density [kg/m3] | viscosity [mPa·s]
288.15 K, x2 = 0 | 1015.63 | 4.341
288.15 K, x2 = 0.1007 | 1006.23 | 4.092
288.15 K, x2 = 0.2003 | 995.702 | 3.792
288.15 K, x2 = 0.3015 | 983.46 | 3.531
288.15 K, x2 = 0.3991 | 969.921 | 3.342
288.15 K, x2 = 0.5011 | 953.53 | 3.157
288.15 K, x2 = 0.6024 | 934.399 | 2.972
288.15 K, x2 = 0.6997 | 912.674 | 2.853
288.15 K, x2 = 0.7998 | 885.897 | 2.874
288.15 K, x2 = 0.9004 | 852.63 | 3.166
293.15 K, x2 = 0 | 1011 | 3.834
293.15 K, x2 = 0.1007 | 1001.61 | 3.582
293.15 K, x2 = 0.2003 | 991.093 | 3.32
293.15 K, x2 = 0.3015 | 978.877 | 3.099
293.15 K, x2 = 0.3991 | 965.365 | 2.941
293.15 K, x2 = 0.5011 | 949.011 | 2.776
293.15 K, x2 = 0.6024 | 929.939 | 2.61
293.15 K, x2 = 0.6997 | 908.32 | 2.498
293.15 K, x2 = 0.7998 | 881.561 | 2.497
293.15 K, x2 = 0.9004 | 848.418 | 2.705
298.15 K, x2 = 0 | 1006.36 | 3.38
298.15 K, x2 = 0.1007 | 996.991 | 3.158
298.15 K, x2 = 0.2003 | 986.495 | 2.937
298.15 K, x2 = 0.3015 | 974.305 | 2.75
298.15 K, x2 = 0.3991 | 960.825 | 2.603
298.15 K, x2 = 0.5011 | 944.498 | 2.461
298.15 K, x2 = 0.6024 | 925.479 | 2.316
298.15 K, x2 = 0.6997 | 903.877 | 2.21
298.15 K, x2 = 0.7998 | 877.228 | 2.187
298.15 K, x2 = 0.9004 | 844.144 | 2.337
303.15 K, x2 = 0 | 1001.73 | 3.004
303.15 K, x2 = 0.1007 | 992.377 | 2.805
303.15 K, x2 = 0.2003 | 981.894 | 2.627
303.15 K, x2 = 0.3015 | 969.723 | 2.472
303.15 K, x2 = 0.3991 | 956.258 | 2.344
303.15 K, x2 = 0.5011 | 939.966 | 2.205
303.15 K, x2 = 0.6024 | 920.978 | 2.068
303.15 K, x2 = 0.6997 | 899.43 | 1.967
303.15 K, x2 = 0.7998 | 872.81 | 1.933
303.15 K, x2 = 0.9004 | 839.81 | 2.037
308.15 K, x2 = 0 | 997.104 | 2.691
308.15 K, x2 = 0.1007 | 987.755 | 2.513
308.15 K, x2 = 0.2003 | 977.28 | 2.363
308.15 K, x2 = 0.3015 | 965.119 | 2.229
308.15 K, x2 = 0.3991 | 951.674 | 2.111
308.15 K, x2 = 0.5011 | 935.407 | 1.984
308.15 K, x2 = 0.6024 | 916.445 | 1.859
308.15 K, x2 = 0.6997 | 894.917 | 1.762
308.15 K, x2 = 0.7998 | 868.357 | 1.72
308.15 K, x2 = 0.9004 | 835.418 | 1.786
313.15 K, x2 = 0 | 992.481 | 2.426
313.15 K, x2 = 0.1007 | 983.135 | 2.269
313.15 K, x2 = 0.2003 | 972.669 | 2.139
313.15 K, x2 = 0.3015 | 960.509 | 2.022
313.15 K, x2 = 0.3991 | 947.072 | 1.914
313.15 K, x2 = 0.5011 | 930.813 | 1.796
313.15 K, x2 = 0.6024 | 911.86 | 1.681
313.15 K, x2 = 0.6997 | 890.367 | 1.59
313.15 K, x2 = 0.7998 | 863.83 | 1.54
313.15 K, x2 = 0.9004 | 830.95 | 1.575
318.15 K, x2 = 0 | 987.859 | 2.199
318.15 K, x2 = 0.1007 | 978.511 | 2.069
318.15 K, x2 = 0.2003 | 968.041 | 1.949
318.15 K, x2 = 0.3015 | 955.883 | 1.836
318.15 K, x2 = 0.3991 | 942.446 | 1.73
318.15 K, x2 = 0.5011 | 926.193 | 1.629
318.15 K, x2 = 0.6024 | 907.25 | 1.529
318.15 K, x2 = 0.6997 | 885.759 | 1.445
318.15 K, x2 = 0.7998 | 859.246 | 1.385
318.15 K, x2 = 0.9004 | 826.396 | 1.397
323.15 K, x2 = 0 | 983.234 | 2.006
323.15 K, x2 = 0.1007 | 973.877 | 1.892
323.15 K, x2 = 0.2003 | 963.397 | 1.787
323.15 K, x2 = 0.3015 | 951.237 | 1.687
323.15 K, x2 = 0.3991 | 937.792 | 1.591
323.15 K, x2 = 0.5011 | 921.533 | 1.495
323.15 K, x2 = 0.6024 | 902.591 | 1.402
323.15 K, x2 = 0.6997 | 881.097 | 1.32
323.15 K, x2 = 0.7998 | 854.581 | 1.259
323.15 K, x2 = 0.9004 | 821.735 | 1.243
